In series [1] the test system is androgenic alopecia (hair loss). Description: Observed effects on androgenic alopecia (hair loss). It is filed as in vivo, human. Particulars: inulin supplements 4 grams daily, one individual. An excerpt: The goal of the first experiment, performed in June 2006, was to investigate the ability for the BLDG formula to show both objective and subjective results. Objective results included blood and urine samples testing for the presence of equol. Subjective results included the documentation of observed effects on androgenic alopecia (hair loss) and acne vulgaris.
The test subject was a person, in good overall health. Subject was physically active, had adequate nutrition and was not taking any drugs or supplements that were known to cause hair loss or acne.
The subject was experiencing a high degree of shedding of the hair from areas of the scalp consistent with male pattern baldness. Miniaturization of the hair follicles on the scalp was noticeable along the hair line, part line and vertex upon close observation. […] Generally, the subject would have been considered a Class II on the Norwood-Hamilton scale, but with some increased vertex thinning more attributable to a Class III.

The nature of series [2]: HPLC/EC determination of daidzein and equol levels in blood serum and urine after the BLDG formula. Particulars: for concentration at 1 day / concentration at 7 day / concentration at 21 day: human, oral; for concentration at 1 day: Day 1, plasma; for concentration at 7 day: Day 7, plasma. The procedure: The subject's diet was limited to 20 grams of saturated fat per day. The subject also consumed a healthy amount of grains, fruits and vegetables.
Blood serum and urine samples were taken on days 1, 7 and 21 and the samples were sent to an independent laboratory for analysis.
Equol in the blood serum was tested (untreated) as unbound to sex hormone-binding globulin (SHBG).

The conditions of series [3]: in vitro; cited from earlier work.
The mark [4] stands for this setting: Day 21, urine, BLDG formula regimen equivalent to Example 1.
Where [5] appears, read: plasma, unbound equol, Mean, BLDG formula regimen equivalent to Example 1.
Setting [6] is: plasma, unbound equol, ng/ml I, BLDG formula regimen equivalent to Example 1.
The mark [7] stands for this setting: plasma, unbound equol, ng/ml II, BLDG formula regimen equivalent to Example 1.

The values below come from patent US20120251511A1, “COMPOSITION AND PRODUCTS FOR ENABLING THE PRODUCTION OF EQUOL IN VIVO” (priority 2011, published 2012).

Take inulin: in series [1], the “effect of added inulin on BLDG dosage needed” value was “able to cut his BLDG dosage in half”.

Consider `O=c1c(-c2ccc(O)cc2)coc2cc(O)ccc12` [Daidzein, 4,7-Dihydroxyisoflavone], for which, in series [2] (setting [4]), the “daidzein, Mean” value amounted to 43974.11 ng/mL; the “daidzein, ng/ml I” value worked out at 44246.59 ng/mL; the “daidzein, ng/ml II” value was 43701.63 ng/mL. The “increase in daidzein levels between Day 7 and Day 21” value in series [2] (blood serum, BLDG formula) turned out to be 45%.

Turning to `Oc1ccc([C@H]2COc3cc(O)ccc3C2)cc1` [S-equol], the “increase in equol concentration between Day 7 and Day 21” value in series [2] (blood serum, BLDG formula) amounted to 3%. In addition, the concentration at 1 day in series [2] (setting [5]), in series [2] (setting [6]) and in series [2] (setting [7]) was 0 ng/mL throughout. Also, the concentration at 7 day in series [2] (setting [5]) was found to be 127 ng/mL; in series [2] (setting [6]), 137 ng/mL; in series [2] (setting [7]), 117 ng/mL. Also, the concentration at 21 day in series [2] (plasma, unbound equol, Mean, Day 21, plasma, BLDG formula regimen equivalent to Example 1) stood at 131 ng/mL; in series [2] (plasma, unbound equol, ng/ml I, Day 21, plasma, BLDG formula regimen equivalent to Example 1), 122 ng/mL; in series [2] (plasma, unbound equol, ng/ml II, Day 21, plasma, BLDG formula regimen equivalent to Example 1), 141 ng/mL; in series [2] (urine, equol, Mean, Day 21, urine, BLDG formula regimen equivalent to Example 1) it was 638 ng/mL; in series [2] (urine, equol, ng/ml I, Day 21, urine, BLDG formula regimen equivalent to Example 1), 613 ng/mL; in series [2] (urine, equol, ng/ml II, Day 21, urine, BLDG formula regimen equivalent to Example 1), 662 ng/mL. For the same compound, in series [3], the “blood levels that may be required to fully mitigate DHT at normal levels of circulation in men” value is 100 ng/mL.
